Reference: paper PMC12040169 (PLOS Biology, 2025)
Peptide text beside a SMILES is read from it. * marks the point of attachment. Hydrocinnamoyl = O=C(CCc1ccccc1)*

Assay: in vitro
Settings: human, hela cells, % viability

Going from `CCn1cc(C2CN(S(=O)(=O)c3cc(C)c(OC)c(C)c3)CCO2)cn1` (stereo not shown) [CBK304224] to `Cc1ccc(S(=O)(=O)N2CCOCC2)cc1-c1cnc(N)c(-c2ccc(O)cc2)n1` [CBK122519], the viability at 28.5 h, 10 µM rises from 85.8% to 98.7%.

Compared with `CC(=O)Nc1cccc(C(=O)N2CCN(Cc3ccccn3)CC2)c1` [CBK304067], `CN1CCN(Cc2c(O)ccc3occ(C(=O)c4ccccc4)c23)CC1` [CBK111438] is higher in viability at 28.5 h, 10 µM: 86.3% for the first, 98.2% for the second.

Compared with `C/C(=N/O)c1ccc(OCCCOc2ccc(/C(C)=N/O)cc2)cc1` [CBK262075], `Oc1cccc(C(O)CNCc2ccc(OCc3ccc(Cl)cc3Cl)cc2)c1` (stereo not shown) [CBK267621C] is lower in viability at 28.5 h, 10 µM: 95.2% for the first, 93% for the second.

Compared with `Fc1cc(Br)ccc1-c1cnn(-c2ccccc2)n1` [CBK112925], `O=C(Cn1cnc2c(cnn2-c2ccccc2)c1=O)NCc1ccco1` [CBK287531] is lower in viability at 28.5 h, 10 µM: 103% for the first, 101% for the second.

First: N#Cc1cccc(C(=O)N2CCCC3(CCN(C(=O)Cc4c[nH]c5ccccc45)C3)C2)c1 (stereo not shown) [CBK131581]
Second: CC1(O)CCCN(C(=O)c2c[nH]nc2-c2cc3ccccc3o2)C1 (stereo not shown) [CBK305555]
The viability at 28.5 h, 10 µM of the first is higher: 93.4% for the first, 88.3% for the second.

Going from `Cc1nc(CN2CCC(Cc3ccccc3)CC2)cs1` [CBK126438] to `C1=CC2CC1CC2CN1CCC(N(CCc2ccccc2)Cc2ccccc2)CC1` (stereo not shown) [CBK264613G], the viability at 28.5 h, 10 µM falls from 95.7% to 87.7%.

Going from `Cc1c(C(=O)NCC[S+](C)[O-])oc2c(C)cccc12` (stereo not shown) [CBK282511] to `COc1ccc(Cc2c(C)nc3c(C(=O)NCCSC)cnn3c2C)cc1` [CBK162191], the viability at 28.5 h, 10 µM rises from 88.8% to 111%.

Compared with `COc1ccc([C@@]23CC[C@@H](N)C[C@@H]2N(C(C)(C)C)CC3)cc1OC` [CBK067673], `CNc1sc(C(=O)c2ccc(OC)c(OC)c2)c(N)c1C#N` [CBK270194] is lower in viability at 28.5 h, 10 µM: 114% for the first, 86.1% for the second.

First: C(=C\c1nccnc1OC(c1ccccc1)c1ccccc1)/c1ccccc1 [CBK106878]
Second: O=C(Nc1cccc(CCc2ccccn2)c1)Nc1cccc2ccccc12 [CBK262337]
The viability at 28.5 h, 10 µM of the first is higher: 99.1% for the first, 87.7% for the second.

First: CC(C)CN(CC(C)C)C(=O)Cn1cc([N+](=O)[O-])cc(C(N)=O)c1=O [CBK297784]
Second: Cc1ccc2ccccc2c1Cn1cc(-c2ccc([N+](=O)[O-])cc2)nc1SCC(=O)NC(C)(C)C [CBK264493]
The viability at 28.5 h, 10 µM of the first is lower: 83.9% for the first, 115% for the second.

Compared with `Cc1nn(-c2ccc(F)cc2)c2c1C(c1ccc(C(=O)O)cc1)CC(=O)N2` (stereo not shown) [CBK286561], `COC(=O)c1ccc(N2C(=O)CC(NCCc3ccc(S(N)(=O)=O)cc3)C2=O)cc1` (stereo not shown) [CBK262859] is lower in viability at 28.5 h, 10 µM: 101% for the first, 99.9% for the second.

Compared with `O=C(O)CCN1C(=O)c2ccc(NC(=O)c3ccccc3Cl)cc2C1=O` [CBK268413], `O=C(O)CCC(=O)Nc1ccc(Oc2ccccc2)cc1` [CBK286957] is higher in viability at 28.5 h, 10 µM: 83.7% for the first, 88.9% for the second.

Compared with `CCCC(=O)c1ccc(S(=O)(=O)N2CCCN(Cc3ccc(F)cc3Cl)CC2)cc1` [CBK062917], `CN(C)CCN1C(=O)C(O)=C(C(=O)c2ccc(S(=O)(=O)N3CCOCC3)cc2)C1c1ccccc1` (stereo not shown) [CBK264668] is lower in viability at 28.5 h, 10 µM: 116% for the first, 100% for the second.

First: Fc1cccc(-c2nccnc2NCCc2ccncc2)c1 [CBK036763]
Second: Clc1ccc(COc2nccnc2OC2CCN(Cc3ccncc3)CC2)cc1Cl [CBK153792]
The viability at 28.5 h, 10 µM of the first is lower: 95.8% for the first, 107% for the second.

First: Cc1cccc(-c2csc3c(=O)[nH]c(N4CCC(C(=O)NCCN5CCOCC5)CC4)nc23)c1 [CBK215640]
Second: Cc1ccc(S(=O)(=O)NC[C@H]2C[C@@H]3CC[N@]2C[C@@H]3CN2CCOCC2)cc1 [CBK288758]
The viability at 28.5 h, 10 µM of the first is higher: 105% for the first, 94.2% for the second.

First: NS(=O)(=O)c1ccc(NC2=NC(=O)C(CC(=O)Nc3ccccc3)S2)cc1 (stereo not shown) [CBK266417]
Second: CCCCC(=O)Nc1ccc(S(N)(=O)=O)cc1 [CBK288490]
The viability at 28.5 h, 10 µM of the first is lower: 98.2% for the first, 113% for the second.

First: Cc1ccc(CC(C#N)Sc2nc(CN3CCOCC3)nc3ccccc23)cc1 (stereo not shown) [CBK298321]
Second: Cc1ccc(COc2ccc(/C=N/NC(=O)CN3CCCCC3)cc2)cc1 [CBK262227]
The viability at 28.5 h, 10 µM of the first is lower: 82% for the first, 103% for the second.

First: CN(C)S(=O)(=O)c1cc(C(=O)NCCc2c[nH]c3ccccc23)c(Cl)cc1Cl [CBK265883]
Second: Cc1ccc2cc(CN(Cc3ccccc3)C(=O)NCc3c(Cl)cccc3Cl)c(=O)[nH]c2c1C [CBK132088]
The viability at 28.5 h, 10 µM of the first is higher: 87.5% for the first, 81.8% for the second.

Compared with `CC1=NN(c2ccc(S(N)(=O)=O)cc2)C(=O)/C1=C\c1ccc(-c2cc([N+](=O)[O-])ccc2C)o1` [CBK263460], `N=C1NC(=O)/C(=C\c2ccc(-c3ccc(Br)cc3)o2)S1` [CBK261409] is lower in viability at 28.5 h, 10 µM: 106% for the first, 69.9% for the second.

Compared with `O=C(N[C@H]1CCN2C(=O)[C@@H](Cc3c[nH]c4ccccc34)NC(=O)[C@H]12)c1cnccn1` [CBK289232], `Cc1nnnn1-c1ccc(CC(=O)N2CCc3sccc3C2c2ccccc2)cc1` (stereo not shown) [CBK285567] is higher in viability at 28.5 h, 10 µM: 89.3% for the first, 103% for the second.

Compared with `Cc1nn(Cc2ccccc2)c(C)c1NC(=O)CSc1nc2sc3c(c2c(=O)n1C)CCC3` [CBK266069], `Cc1cc(OCc2nnc(SCC(=O)Nc3ccc(I)cc3)n2C)ccc1Cl` [CBK268600] is higher in viability at 28.5 h, 10 µM: 96.4% for the first, 113% for the second.

Compared with `Cc1ccc(NC(C(N)=O)c2c(C)[nH]c(=O)[nH]c2=O)cc1` (stereo not shown) [CBK111355], `CC(C)Cn1c(SCC(=O)Nc2ccc(OC(F)F)cc2)nc(O)cc1=O` [CBK296679] is lower in viability at 28.5 h, 10 µM: 98.4% for the first, 91.2% for the second.

Going from `Cc1nc(C)n(CC2CCCN(c3ncnc4ccsc34)C2)n1` (stereo not shown) [CBK304037] to `Cc1nc(O)cc(C2CCN(C(=O)c3scc4c3CCCC4)CC2)n1` [CBK307452], the viability at 28.5 h, 10 µM rises from 71.8% to 85.9%.

First: O=c1[nH]cnc2c([C@@H]3O[C@H](CO)[C@H](O)C3O)n[nH]c12 (stereo partly shown) [CBK201242]
Second: OC1CCC(Nc2cncc(-c3cccc(Cl)c3)n2)CC1 (stereo not shown) [CBK066031]
The viability at 28.5 h, 10 µM of the first is higher: 98.1% for the first, 91% for the second.

First: O=C(CSc1nnc(-c2cccnc2)n1-c1ccc(Br)cc1)Nc1ccc(F)cc1 [CBK266174]
Second: O=C(O)CC(Cc1ccccc1)C(=O)Nc1ccc(F)cc1 (stereo not shown) [CBK286841]
The viability at 28.5 h, 10 µM of the first is higher: 111% for the first, 96.1% for the second.

First: COc1cccc(/C=N/NC(=O)C(=O)NCc2ccccn2)c1 [CBK262268]
Second: Cc1ccccc1OCC(O)CNC(=O)c1ccccc1C(=O)O (stereo not shown) [CBK264824]
The viability at 28.5 h, 10 µM of the first is lower: 84.5% for the first, 94.8% for the second.

First: CC(=O)N[C@H]1CC[C@]2(C)CCC([C@H](C)C(=O)NCCN3CCCC3)[C@H](O)[C@H]2[C@@H]1C (stereo partly shown) [CBK289440]
Second: O=c1oc2ccccc2c(NCCN2CCCCC2)c1[N+](=O)[O-] [CBK218805]
The viability at 28.5 h, 10 µM of the first is lower: 86.5% for the first, 92% for the second.

First: CC(=O)Nc1cccc(NC(=O)c2cc(-c3ccncc3)nc3ccc(Cl)cc23)c1 [CBK267773]
Second: O=C(COc1ccc(-c2cc(-c3ccccc3)c3cc(Cl)ccc3n2)cc1)N/N=C/c1ccc2ncccc2c1 [CBK263365]
The viability at 28.5 h, 10 µM of the first is lower: 92.6% for the first, 95.8% for the second.

Compared with `O=C(NCCCN1CCOCC1)c1ccc(/C=N/O)nc1` [CBK264468], `COc1cccc(C(=O)NCC(c2cccs2)N2CCOCC2)c1` (stereo not shown) [CBK305075] is lower in viability at 28.5 h, 10 µM: 107% for the first, 90.7% for the second.

Compared with `O=C(Nc1c(F)cc(F)cc1OC1CCNCC1)c1cccnc1` [CBK050275T], `CS(=O)(=O)Nc1nccnc1OC1CCNCC1` [CBK074265T] is lower in viability at 28.5 h, 10 µM: 100% for the first, 90.6% for the second.

Going from `O=C1CCC(=O)N1CCN1C(=O)C2(CC(=O)N(Cc3ccccc3)C2=O)c2ccccc21` (stereo not shown) [CBK075705] to `O=C1c2ccccc2C(=O)N1CN(Cc1ccc2c(c1)OCO2)CN1C(=O)c2ccccc2C1=O` [CBK265197], the viability at 28.5 h, 10 µM rises from 101% to 107%.

Going from `CCC1c2ccc(C)n2CCN1Cc1cnc(C)n1C` (stereo not shown) [CBK283038] to `Cn1cc(CN2CCNC(=O)C2c2ccccc2C(F)(F)F)cn1` (stereo not shown) [CBK306407], the viability at 28.5 h, 10 µM falls from 105% to 90.4%.

First: CCOC(=O)N1CCN(Cc2ccc(OCC3CCCNC3)cc2)CC1 (stereo not shown) [CBK307355]
Second: CCOc1ccc(C2(C)C(=O)N(CN3CCOCC3)C(=O)N2CN2CCOCC2)cc1 (stereo not shown) [CBK261359]
The viability at 28.5 h, 10 µM of the first is lower: 73.8% for the first, 96% for the second.

Compared with `CC(NC(=O)c1n[nH]c2c1CCC2)c1cccnc1` (stereo not shown) [CBK281488], `CC(=O)N1CCN(c2cncc(-c3ccc(O)cc3)n2)CC1` [CBK126948T] is lower in viability at 28.5 h, 10 µM: 93.7% for the first, 88.9% for the second.

Going from `O=C(O)CNC(=O)CNC(=O)CCc1ccccc1` [CBK286874] (Hydrocinnamoyl-Gly-Gly-OH) to `O=S(=O)(Nc1ccccc1)c1ccccc1I` [CBK057566], the viability at 28.5 h, 10 µM rises from 87.1% to 92.5%.

First: CC(NC(=O)N(Cc1ccc(-c2ccccc2)cc1)CC(C)(C)CN)c1cccc2ccccc12 (stereo not shown) [CBK002426C]
Second: O=C(COc1ccc2ccccc2c1)Nc1cc([N+](=O)[O-])ccc1F [CBK263780]
The viability at 28.5 h, 10 µM of the first is lower: 50.9% for the first, 92.8% for the second.

Going from `O=C(C1CC2C=CC1C21CC1)N1CCCC(c2nc3ccccc3[nH]2)C1` (stereo not shown) [CBK281513] to `O=C(c1ccccc1F)N1C[C@H](c2ccsc2)[C@H]2CN(Cc3cccc(F)c3)CC[C@H]21` [CBK285660], the viability at 28.5 h, 10 µM rises from 91.4% to 120%.

Compared with `O=c1[nH]c2ncc(-c3ccoc3)nc2n1Cc1ccco1` [CBK064639], `CCOC(=O)C1=c2s/c(=C\c3cccnc3)c(=O)n2C(N)=C(C#N)C1c1cccnc1` (stereo not shown) [CBK262549] is higher in viability at 28.5 h, 10 µM: 102% for the first, 107% for the second.

Compared with `CCc1nc2ccc(C(=O)N(C)CCN(C)C)cn2c1N(C)Cc1nccs1` [CBK145474], `CN(C)CCNC(=O)c1ccc(COc2ccc(Cl)cc2Cl)cc1` [CBK265878] is lower in viability at 28.5 h, 10 µM: 96.8% for the first, 90.9% for the second.

Compared with `COCC(=O)Nc1cc(OC)c(Cl)cc1OC` [CBK264448], `O=C(CNS(=O)(=O)c1ccc(Cl)c(Cl)c1Cl)N1CCOCC1` [CBK034472] is higher in viability at 28.5 h, 10 µM: 103% for the first, 110% for the second.

First: CCCN[C@@H]1CCc2cc(CNC(=O)c3ccc(C#N)cc3)ccc2C1 [CBK010211C]
Second: CCOc1ccc(C(C)(CC(N)=O)C(=O)O)cc1 (stereo not shown) [CBK286778]
The viability at 28.5 h, 10 µM of the first is higher: 101% for the first, 97.9% for the second.

Going from `COc1cccc(CN2CCC3(C/C=C/COc4ccccc4C(=O)NCCNC3=O)CC2)c1F` [CBK292025] to `Cc1ccn(CCNC(=O)CC2CC3CCC2C3)n1` (stereo not shown) [CBK282068], the viability at 28.5 h, 10 µM rises from 108% to 110%.

Same assay, conditions: human, hela cells, % viability, bulk resorufin, single well

With `O=C(Nc1ccc2c(c1)OC(F)(F)O2)c1nn(Cc2ccc(-c3csnn3)cc2)c2ccccc12` [CBK047877] the viability at 28.5 h, 10 µM was 86.8%.
